The source of these data is ChEMBL document CHEMBL4261488, “Do GluN2B subunit containing NMDA receptors tolerate a fluorine atom in the phenylalkyl side chain?” (Medchemcomm, 2017).

Molecules are shown by their SMILES.

A short description of experiment [1]: Displacement of [3H]-di-o-tolylguanidine from sigma 2 receptor in rat liver membranes after 120 mins by scintillation counting analysis. Format: cell membranes, Membrane. (Loss of bound radioactivity is the signal in a displacement assay; it reports binding, not function.)
Experiment [2] deals with Glutamate receptor ionotropic, NMDA 2B (Homo sapiens, UniProt Q13224). Put plainly: Displacement of [3H]-ifenprodil from GluN2B receptor (unknown origin) expressed in mouse L (tk-) cell membranes after 120 mins by scintillation counting method.
For the next experiment, the species on record is Sus scrofa. Put plainly: Displacement of [3H]-(+)-MK-801 from PCP binding site of NMDA receptor in pig brain cortex membranes at 1 uM after 90 mins by scintillation counting method relative to control. Format: cell membranes.
Experiment [3] concerns the target Sigma non-opioid intracellular receptor 1 (Cavia porcellus, UniProt Q60492). Format: cell membranes, Brain, Membrane.

Sequence of Glutamate receptor ionotropic, NMDA 2B (Q13224 whole entry): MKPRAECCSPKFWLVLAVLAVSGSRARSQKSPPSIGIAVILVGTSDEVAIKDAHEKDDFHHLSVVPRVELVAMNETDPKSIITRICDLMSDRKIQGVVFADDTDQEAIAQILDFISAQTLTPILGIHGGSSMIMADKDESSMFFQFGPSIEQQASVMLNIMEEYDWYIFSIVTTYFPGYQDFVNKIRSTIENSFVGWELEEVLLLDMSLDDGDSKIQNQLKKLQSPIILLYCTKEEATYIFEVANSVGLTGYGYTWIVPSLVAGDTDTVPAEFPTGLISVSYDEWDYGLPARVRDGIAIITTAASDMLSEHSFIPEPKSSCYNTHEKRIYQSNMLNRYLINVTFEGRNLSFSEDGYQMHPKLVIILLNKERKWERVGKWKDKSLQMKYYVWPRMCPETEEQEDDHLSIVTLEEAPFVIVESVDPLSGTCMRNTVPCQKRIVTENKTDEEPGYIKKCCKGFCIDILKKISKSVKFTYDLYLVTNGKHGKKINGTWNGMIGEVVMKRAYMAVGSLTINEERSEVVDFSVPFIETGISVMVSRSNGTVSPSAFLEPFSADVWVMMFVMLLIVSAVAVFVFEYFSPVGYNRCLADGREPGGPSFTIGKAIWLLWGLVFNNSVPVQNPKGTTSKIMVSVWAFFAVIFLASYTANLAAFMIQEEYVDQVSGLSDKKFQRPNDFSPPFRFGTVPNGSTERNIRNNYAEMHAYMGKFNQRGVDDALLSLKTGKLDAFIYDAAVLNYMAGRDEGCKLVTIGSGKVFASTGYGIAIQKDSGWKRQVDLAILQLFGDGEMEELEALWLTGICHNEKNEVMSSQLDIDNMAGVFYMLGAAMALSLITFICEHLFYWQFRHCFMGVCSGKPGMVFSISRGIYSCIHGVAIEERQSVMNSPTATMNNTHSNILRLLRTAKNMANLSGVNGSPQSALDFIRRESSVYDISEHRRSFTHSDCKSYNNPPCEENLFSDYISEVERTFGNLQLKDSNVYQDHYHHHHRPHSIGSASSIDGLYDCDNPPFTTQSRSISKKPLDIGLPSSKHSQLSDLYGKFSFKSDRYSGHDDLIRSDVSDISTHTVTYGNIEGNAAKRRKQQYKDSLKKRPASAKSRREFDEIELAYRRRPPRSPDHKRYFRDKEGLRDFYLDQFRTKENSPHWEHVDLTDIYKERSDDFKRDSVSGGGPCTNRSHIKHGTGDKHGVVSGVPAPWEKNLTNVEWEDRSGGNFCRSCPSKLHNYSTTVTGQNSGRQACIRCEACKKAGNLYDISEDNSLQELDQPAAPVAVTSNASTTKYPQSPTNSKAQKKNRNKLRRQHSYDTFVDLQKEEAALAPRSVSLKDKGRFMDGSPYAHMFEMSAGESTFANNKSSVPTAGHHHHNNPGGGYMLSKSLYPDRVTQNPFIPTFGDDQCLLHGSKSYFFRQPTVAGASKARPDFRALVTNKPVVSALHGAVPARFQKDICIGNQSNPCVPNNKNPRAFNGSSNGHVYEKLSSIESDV
Sequence of Sigma non-opioid intracellular receptor 1 (Q60492 whole entry): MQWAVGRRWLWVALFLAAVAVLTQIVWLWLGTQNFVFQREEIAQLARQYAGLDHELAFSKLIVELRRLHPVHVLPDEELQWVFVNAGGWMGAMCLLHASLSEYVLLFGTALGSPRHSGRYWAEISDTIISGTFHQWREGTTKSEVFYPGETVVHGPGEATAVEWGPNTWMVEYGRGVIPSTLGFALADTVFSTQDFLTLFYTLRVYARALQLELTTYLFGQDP

For `FC(CCc1ccccc1)CNC1CCc2ccccc2CC1` (stereo not given), the Ki (in general, the dissociation constant of the complex between target and ligand, obtained from inhibition or displacement) in experiment [1] is 19 nM; in experiment [2], 27 nM; in experiment [3], 82 nM. In addition, the inhibition (in general, the percentage by which the read-out fell short of the control) in the experiment filed under Sus scrofa was found to be 3%.

`COc1ccc2c(c1)CC[C@H](NCCCc1ccccc1)C[C@@H]2O` (relative stereo): the inhibition constant (Ki) in experiment [2] came out at 16 nM.

`COc1ccc2c(c1)CCC(NCCCc1ccccc1)CC2` (stereo not given) displayed a Ki in experiment [2] of 11 nM.

`FC(CNC1CCc2ccccc2CC1)Cc1ccccc1` (stereo not given): the Ki in experiment [1] amounted to 14 nM; in experiment [2], 17 nM; in experiment [3], 54 nM. The compound further gave an inhibition in the experiment listed under Sus scrofa of 2%.
